Source: patent US11104675B2, “PTPN11 inhibitors” (NAVIRE PHARMA, INC., priority 2018, dated 2021)

Key:
[1] = biological target: PTPN11-E76K mutant enzyme (Homo sapiens (Human), UniProt Q06124, E76K); test: PTPN11 Enzymatic Assay (DiFMUP phosphatase activity); assay type: biochemical; conditions: full length PTPN11-E76K, DiFMUP substrate; read-out: IC50, inhibition of PTPN11-E76K mutant enzyme
KYSE520 xenografts = test: In vivo anti-tumor efficacy, KYSE520 xenograft model; design: species or system NSG (NOD scid gamma) mice; conditions: NSG mice, subcutaneous KYSE520 xenografts, oral gavage once a day for 21 days

Sequence of PTPN11-E76K mutant enzyme (Q06124 whole entry E76K): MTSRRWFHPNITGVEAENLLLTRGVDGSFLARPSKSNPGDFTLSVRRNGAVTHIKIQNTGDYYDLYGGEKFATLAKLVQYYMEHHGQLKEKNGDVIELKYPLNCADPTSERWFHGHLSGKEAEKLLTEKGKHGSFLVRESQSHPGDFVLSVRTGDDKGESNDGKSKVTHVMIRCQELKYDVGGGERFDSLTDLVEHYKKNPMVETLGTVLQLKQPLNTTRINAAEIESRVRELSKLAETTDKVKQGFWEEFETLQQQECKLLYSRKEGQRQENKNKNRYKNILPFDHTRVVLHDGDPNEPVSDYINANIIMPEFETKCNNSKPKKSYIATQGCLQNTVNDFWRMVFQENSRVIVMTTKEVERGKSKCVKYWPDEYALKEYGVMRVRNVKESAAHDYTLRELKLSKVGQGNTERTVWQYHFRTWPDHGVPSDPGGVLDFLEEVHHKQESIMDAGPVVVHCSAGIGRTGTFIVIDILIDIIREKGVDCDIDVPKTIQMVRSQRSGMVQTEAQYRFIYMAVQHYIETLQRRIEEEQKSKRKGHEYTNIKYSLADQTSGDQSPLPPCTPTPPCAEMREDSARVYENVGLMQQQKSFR

Row | Compound | IC50 [1] [nM] | tumor growth inhibition (KYSE520 xenografts)
1 | COc1cccc(-n2c(C)nc(N3CCC4(CC3)CO[C@@H](C)[C@H]4N)cc2=O)c1Cl (atropisomer, axis not shown; (Ra)) [Example 7b, 6-((3S,4S)-4-amino-3-methyl-2-oxa-8-azaspiro[4.5]decan-8-yl)-3-(Ra)-(2-chloro-3-methoxyphenyl)-2-methylpyrimidin-4(3H)-one] | 153 | 
2 | Cc1c(N2CCC3(CC2)CO[C@@H](C)[C@H]3N)nc(C)n(-c2cccc(Cl)c2Cl)c1=O (atropisomer, axis not shown; (Ra)) [Example 10b, 6-((3S, 4S)-4-amino-3-methyl-2-oxa-8-azaspiro[4.5]decan-8-yl)-3-(Ra)-(2,3-dichlorophenyl)-2,5-dimethylpyrimidin-4(3H)-one] | 28 | dose-dependent tumor growth inhibition
3 | Cc1nc(N2CCC3(CC2)CO[C@@H](C)[C@H]3N)c(Br)c(=O)n1-c1cccc(Cl)c1Cl (atropisomer, axis not shown; (Ra)) [Example 12b, 6-((3S, 4S)-4-amino-3-methyl-2-oxa-8-azaspiro[4.5]decan-8-yl)-5-bromo-3-(Ra)-(2,3-dichlorophenyl)-2-methylpyrimidin-4(3H)-one] | 20 | 
4 | Cc1cccc(-n2c(C)nc(N3CCC4(CC3)CO[C@@H](C)[C@H]4N)cc2=O)c1Cl (atropisomer, axis not shown; (Ra)) [Example 13b, 6-((3S, 4S)-4-amino-3-methyl-2-oxa-8-azaspiro[4.5]decan-8-yl)-3-(Ra)-(2-chloro-3-methylphenyl)-2-methylpyrimidin-4(3H)-one] | 186 | 
5 | Cc1nc(N2CCC3(CC2)CO[C@@H](C)[C@H]3N)cc(=O)n1-c1cccc(C(F)(F)F)c1Cl (atropisomer, axis not shown; (Ra)) [Example 14b, 6-((3 S, 4S)-4-Amino-3-methyl-2-oxa-8-azaspiro[4.5]decan-8-yl)-3-(Ra)-(2-chloro-3-(trifluoromethyl)phenyl)-2-methylpyrimidin-4(3H)-one] | 703 | 
6 | Cc1nc(N2CCC3(CC2)CO[C@@H](C)[C@H]3N)cc(=O)n1-c1ccc(Oc2ccccc2)c(Cl)c1Cl (atropisomer, axis not shown; (Ra)) [Example 15b, 6-((3S, 4S)-4-amino-3-methyl-2-oxa-8-azaspiro[4.5]decan-8-yl)-3-(Ra)-(2,3-dichloro-4-phenoxyphenyl)-2-methylpyrimidin-4(3H)-one] | 148 | 
7 | Cc1nc(N2CCC3(CC2)CO[C@@H](C)[C@H]3N)cc(=O)n1-c1ccc(Oc2ccn(C)n2)c(Cl)c1Cl (atropisomer, axis not shown; (Ra)) [Example 16b, 6-((3 S, 4S)-4-Amino-3-methyl-2-oxa-8-azaspiro[4.5]decan-8-yl)-3-(Ra)-(2,3-dichloro-4-((1-methyl-1H-pyrazol-3-yl)oxy)phenyl)-2-methylpyrimidin-4(3H)-one] | 92 | 
8 | Cc1c(N2CCC3(CC2)CO[C@@H](C)[C@H]3N)nc(C)n(-c2ccc(Oc3ccn(C)n3)c(Cl)c2Cl)c1=O (atropisomer, axis not shown; (Ra)) [Example 18b, 6-((3 S, 4 S)-4-Amino-3-methyl-2-oxa-8-azaspiro[4.5]decan-8-yl)-3-(Ra)-(2,3-dichloro-4-((1-methyl-1H-pyrazol-3-yl)oxy)phenyl)-2,5-dimethylpyrimidin-4(3H)-one] | 3 | 
9 | CNC(=O)c1ccc(Oc2ccc(-n3c(C)nc(N4CCC5(CC4)CO[C@@H](C)[C@H]5N)c(C)c3=O)c(Cl)c2Cl)cc1 (atropisomer, axis not shown; (Ra)) [Example 19b] | 12 | 
10 | Cc1c(N2CCC3(CC2)CO[C@@H](C)[C@H]3N)nc(C)n(-c2ccc(Oc3cc[nH]n3)c(Cl)c2Cl)c1=O (atropisomer, axis not shown; (Ra)) [Example 20b, 3-(4-((1H-pyrazol-3-yl)oxy)-(Ra)-2,3-dichlorophenyl)-6-((3S, 4S)-4-amino-3-methyl-2-oxa-8-azaspiro[4.5]decan-8-yl)-2,5-dimethylpyrimidin-4(3H)-one] | 5 | 
11 | COc1cccc(-n2c(C)nc(N3CCC4(CC3)CO[C@@H](C)[C@H]4N)cc2=O)c1Cl (atropisomer, axis not shown; (Sa)) [Example 7a, 6-((3S,4S)-4-amino-3-methyl-2-oxa-8-azaspiro[4.5]decan-8-yl)-3-(Sa)-(2-chloro-3-methoxyphenyl)-2-methylpyrimidin-4(3H)-one] | > 10000 | 
12 | Cc1c(N2CCC3(CC2)CO[C@@H](C)[C@H]3N)nc(C)n(-c2cccc(Cl)c2Cl)c1=O (atropisomer, axis not shown; (Sa)) [Example 10a, 6-((3S, 4S)-4-Amino-3-methyl-2-oxa-8-azaspiro[4.5]decan-8-yl)-3-(Sa)-(2,3-dichlorophenyl)-2,5-dimethylpyrimidin-4(3H)-one] | 2580 | 
13 | Cc1nc(N2CCC3(CC2)CO[C@@H](C)[C@H]3N)c(Br)c(=O)n1-c1cccc(Cl)c1Cl (atropisomer, axis not shown; (Sa)) [Example 12a, 6-((3S, 4S)-4-Amino-3-methyl-2-oxa-8-azaspiro[4.5]decan-8-yl)-5-bromo-3-(Sa)-(2,3-dichlorophenyl)-2-methylpyrimidin-4(3H)-one] | 3460 | 
14 | Cc1cccc(-n2c(C)nc(N3CCC4(CC3)CO[C@@H](C)[C@H]4N)cc2=O)c1Cl (atropisomer, axis not shown; (Sa)) [Example 13a, 6-((3S, 4S)-4-Amino-3-methyl-2-oxa-8-azaspiro[4.5]decan-8-yl)-3-(Sa)-(2-chloro-3-methylphenyl)-2-methylpyrimidin-4(3H)-one] | 7500 | 
15 | Cc1nc(N2CCC3(CC2)CO[C@@H](C)[C@H]3N)cc(=O)n1-c1cccc(C(F)(F)F)c1Cl (atropisomer, axis not shown; (Sa)) [Example 14a, 6-((3S, 4S)-4-Amino-3-methyl-2-oxa-8-azaspiro[4.5]decan-8-yl)-3-(Sa)-(2-chloro-3-(trifluoromethyl)phenyl)-2-methylpyrimidin-4(3H)-one] | > 1000 | 
16 | Cc1nc(N2CCC3(CC2)CO[C@@H](C)[C@H]3N)cc(=O)n1-c1ccc(Oc2ccccc2)c(Cl)c1Cl (atropisomer, axis not shown; (Sa)) [Example 15a, 6-((3S, 4S)-4-Amino-3-methyl-2-oxa-8-azaspiro[4.5]decan-8-yl)-3-(Sa)-(2,3-dichloro-4-phenoxyphenyl)-2-methylpyrimidin-4(3H)-one] | > 1000 | 
17 | Cc1nc(N2CCC3(CC2)CO[C@@H](C)[C@H]3N)cc(=O)n1-c1ccc(Oc2ccn(C)n2)c(Cl)c1Cl (atropisomer, axis not shown; (Sa)) [Example 16a, 6-((3 S, 4S)-4-Amino-3-methyl-2-oxa-8-azaspiro[4.5]decan-8-yl)-3-(Sa)-(2,3-dichloro-4-((1-methyl-1H-pyrazol-3-yl)oxy)phenyl)-2-methylpyrimidin-4(3H)-one] | 9550 | 
18 | Cc1c(N2CCC3(CC2)CO[C@@H](C)[C@H]3N)nc(C)n(-c2ccc(Oc3ccn(C)n3)c(Cl)c2Cl)c1=O (atropisomer, axis not shown; (Sa)) [Example 18a, 6-((3S, 4S)-4-Amino-3-methyl-2-oxa-8-azaspiro[4.5]decan-8-yl)-3-(Sa)-(2,3-dichloro-4-((1-methyl-1H-pyrazol-3-yl)oxy)phenyl)-2,5-dimethylpyrimidin-4(3H)-one] | 511 | 
19 | Cc1nc(N2CCC(C)(CN)CC2)cc(=O)n1-c1cccc(Cl)c1Cl [Example 3, 6-[4-(aminomethyl)-4-methylpiperidin-1-yl]-3-(2,3-dichlorophenyl)-2-methyl-3,4-dihydropyrimidin-4-one] | 310 | 
20 | CCC1(N)CCN(c2cc(=O)n(-c3cccc(Cl)c3Cl)c(C)n2)CC1 [Example 4, 6-(4-amino-4-ethylpiperidin-1-yl)-3-(2,3-dichlorophenyl)-2-methyl-3,4-dihydropyrimidin-4-one] | 480 | 
21 | Cc1nc(N2CCC3(CC2)CO[C@@H](C)[C@H]3N)cc(=O)n1-c1cccc(F)c1F [Example 5, 6-[(3S,4S)-4-amino-3-methyl-2-oxa-8-azaspiro[4.5]decan-8-yl]-3-(2,3-difluorophenyl)-2-methyl-3,4-dihydropyrimidin-4-one] | 1170 | 
22 | Cc1nc(N2CCC3(CC2)CO[C@@H](C)[C@H]3N)cc(=O)n1-c1ccc(Br)c(Cl)c1Cl [Example 6, 6-((3S,4S)-4-amino-3-methyl-2-oxa-8-azaspiro[4.5]decan-8-yl)-3-(4-bromo-2,3-dichlorophenyl)-2-methylpyrimidin-4(3H)-one] | 203 | 
23 | Cc1nc(N2CCC3(CC2)CO[C@@H](C)[C@H]3N)cc(=O)n1-c1cccc(Cl)c1Br [Example 8, 6-((3S,4S)-4-amino-3-methyl-2-oxa-8-azaspiro[4.5]decan-8-yl)-3-(2-bromo-3-chlorophenyl)-2-methylpyrimidin-4(3H)-one] | 360 | 
24 | Cc1nc(N2CCC3(CC2)CO[C@@H](C)[C@H]3N)c(Cl)c(=O)n1-c1ccnc(Cl)c1Cl [Example 17, 6-((3S, 4S)-4-Amino-3-methyl-2-oxa-8-azaspiro[4.5]decan-8-yl)-5-chloro-3-(2,3-dichloropyridin-4-yl)-2-methylpyrimidin-4(3H)-one] | 618 | 
